Like-named read-outs stand apart in the source and are kept apart here.
Tests used:
H522 = assay: MTT viability assay, H522; format: cell-based, human; settings: mean ± span, 48 h treatment, cell line without KRAS mutation
Description: (§1) NSCLC cell lines were obtained from the Hamon Center for Therapeutic Oncology Research (UT Southwestern Medical Center). IMR-90 human lung fibroblasts were from ATCC (CC-186). All cell lines were maintained and treated in RPMI medium (Cytiva (Shanghai, China), #SH30027), supplemented with 10% heat-inactivated FBS (Millipore Sigma (Darmstadt, Germany), F0394).
(§2) 5000–10,000 cells/0.1 mL/well were seeded in 96-well plates to achieve 70% confluence after 24 h. All drug stock solutions were prepared fresh in DMSO at a concentration of 10 mM. The day after cell plating, we added 0.1 mL of medium containing the appropriate drug dilutions. After 48 h of treatment, 10 μL of MTT solution (5 mg/mL) was added to each well. After 4 h incubation, the medium was aspirated, and the formazan salts dissolved in 200 μL DMSO/well for 10 min at 37 °C. The absorbance was read at 570 nm (OD 570 nm). Data are represented as mean ± SD of two independent experiments.
(§3) Statistical and data analysis was performed using GraphPad Prism (v10). IC50 values were calculated using a three-parameter non-linear regression model with log(inhibitor) vs. response. For the TxrR activity statistics, the groups were compared using a two-way ANOVA followed by Dunnett’s multiple comparisons with alpha = 0.05. The correlation between IC50 values and TxrR activity was achieved using Pearson correlation with alpha = 0.05.

H661 = assay: MTT viability assay, H661; format: cell-based, human; settings: mean ± span, 48 h treatment, cell line without KRAS mutation
Description: as §1, §2, §3

H1395 = assay: MTT viability assay, H1395; format: cell-based, human; settings: mean ± span, 48 h treatment, cell line without KRAS mutation
Description: as §1, §2, §3

H157 = assay: MTT viability assay, H157; format: cell-based, human; settings: mean ± span, 48 h treatment, cell line with KRAS mutation
Description: as §1, §2, §3

H460 = assay: MTT viability assay, H460; format: cell-based, human; settings: mean ± span, 48 h treatment, cell line with KRAS mutation
Description: as §1, §2, §3

H1792 = assay: MTT viability assay, H1792; format: cell-based, human; settings: mean ± span, 48 h treatment, cell line with KRAS mutation
Description: as §1, §2, §3

HCC-44 = assay: MTT viability assay, HCC-44; format: cell-based, human; settings: mean ± span, 48 h treatment, cell line with KRAS mutation
Description: as §1, §2, §3

H1355 = assay: MTT viability assay, H1355; format: cell-based, human; settings: mean ± span, 48 h treatment, cell line with KRAS mutation
Description: as §1, §2, §3

IMR90 = assay: MTT viability assay, IMR90 non-transformed lung fibroblasts; format: cell-based, human; settings: for selectivity for the NSCLC cell lines over the lung fibroblasts: IMR90 vs NSCLC cell lines, MTT 48 h; for IC50: mean ± span, 48 h treatment, MTT, non-transformed human lung fibroblasts
Description: as §1, §2, §3

[1] = system: human NSCLC cell lines without KRAS mutations; assay: MTT assay, average across NSCLC cell lines without KRAS mutations; format: cell-based; settings: average across cell lines without KRAS mutations (H522, H661, H1395, H1993), 48 h, read-out: IC50 * averaged values
Description: as §1, §2, §3

[2] = molecular target: T1, recombinant human DHFR (hDHFR) (Homo sapiens, UniProt P00374); assay: Cell-free human dihydrofolate reductase enzymatic activity; format: biochemical; settings: for effect on hDHFR enzymatic activity: H2F sub-saturating (~20 µM) and close to Km (~3 µM)
T1 construct: made in house; host or cells: E. coli BL21, plasmid pET17b (gift of C. Robert Matthews)
T1 sequence (P00374 1-187): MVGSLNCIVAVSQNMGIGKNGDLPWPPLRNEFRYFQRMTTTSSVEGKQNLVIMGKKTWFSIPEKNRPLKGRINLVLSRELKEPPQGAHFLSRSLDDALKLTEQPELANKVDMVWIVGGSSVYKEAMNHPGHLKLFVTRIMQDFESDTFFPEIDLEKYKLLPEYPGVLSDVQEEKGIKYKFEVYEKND
Description: Recombinant human DHFR was overexpressed and purified from pET17b (+) encoding the hDHFR gene/BL21 (Novagene® (Hong Kong, China)) E. coli cells as described in the literature. The protein purity was verified as a single band in Coomassie-stained SDS-PAGE. The concentration of the hDHFR was measured spectrophotometrically at 280 nm using the extinction coefficient of 28,400 M^−1 cm^−1 and resulted to be equal to 14 µM. The activity of the DHFR was followed by recording the absorbance over time at 340 nm in a UV-VIS spectrophotometer Shimadzu UV-2450. The procedure consisted of mixing the 50 mM Hepes buffer (pH 7.3) with saturating concentration NADPH ([…]) and […] hDHFR, incubating at 37 °C for 5 min, and starting the reaction by adding H2F at various concentrations. When testing the inhibition capacity of gold complexes, the reaction mixture was prepared by adding increasing concentrations of the tested compounds before the incubation at 37 °C. Since the gold complexes were solubilized in 100% methanol (HPLC-grade, Carlo Erba), the enzymatic activity of hDHFR was also assessed in the presence of the equal volumes of MeOH used in the assays with the gold complexes and eventually subtracted. Data are represented as mean ± SEM of 2 independent experiments and analyzed according to best-fit models using GraphPad Prism (v10).
For the data analysis of hDHFR enzymatic activity, the sigmoidal non-linear fitting model in the GraphPad Prism (v10) was used, in which the concentration of inhibitor was expressed as concentrations: Y = Bottom + (Top − Bottom)/(1 + (IC50/X)^HillSlope). Figures were partially prepared with BioRender (https://app.biorender.com) accessed on 25 July 2024).

Structure (SMILES)	IC50 (H522)	IC50 (H661)	IC50 (H1395)	IC50 (H157)	IC50 (H460)	IC50 (H1792)	IC50 (HCC-44)	IC50 (H1355)	selectivity for the NSCLC cell lines over the lung fibroblasts (IMR90)	IC50 (IMR90)	IC50 [1]	magnitude of inhibition, hDHFR ([2]; H2F concentration 3.47 µM)	IC50 ([2]; H2F concentration 3.47 µM, read-out: hDHFR IC50)	magnitude of inhibition, hDHFR ([2]; H2F concentration 21.0 µM)	IC50 ([2]; H2F concentration 21.0 µM, read-out: hDHFR IC50)	effect on hDHFR enzymatic activity [2]	IC50 ([2]; H2F concentration 3.89 µM, sigmoidal fit, read-out: hDHFR IC50)	IC50 ([2]; H2F concentration 22.6 µM, sigmoidal fit, read-out: hDHFR IC50)	reduction of the enzymatic activity of hDHFR (conclusions) ([2]; dihydrofolate concentration comparable with the Km)	IC50 ([2]; dihydrofolate concentration comparable with the Km, read-out: hDHFR IC50 (conclusions))
Clc1n[c]([Au-][P+](c2ccccc2)(c2ccccc2)c2ccccc2)n(Cc2ccccc2)c1Cl [Compound 7]	6.5 ± 0.97 µM	0.95 ± 1 µM	6.3 ± 0.98 µM	8.5 ± 1.2 µM	6.6 ± 1.02 µM	12 ± 1.04 µM	9.2 ± 1.02 µM	7.8 ± 0.61 µM	good selectivity	63 ± 2.5 µM	4 µM	~ 50%	10.9 ± 9.77 µM	~ 50%	23.6 ± 20.7 µM	very little effect on the enzymatic activity	–	–	–	–
Cn1cc[n+](C)[c]1[Au-2]([Cl])[P+](c1ccccc1)(c1ccccc1)c1ccccc1 [Compound 8]	3.3 ± 0.93 µM	1.1 ± 1.1 µM	5.9 ± 0.97 µM	17 ± 1.2 µM	13 ± 1.4 µM	15 ± 1.1 µM	7.3 ± 1.05 µM	6.4 ± 0.65 µM	good selectivity	87 ± 4.9 µM	3 µM	–	–	–	–	important inhibitory function	15 ± 1.25 µM	14.8 ± 1.25 µM	80%	~15 µM

From paper PMC11435220, “Anticancer Activity of Imidazolyl Gold(I/III) Compounds in Non-Small Cell Lung Cancer Cell Lines” (Pharmaceuticals, 2024)
